# In ChEMBL document CHEMBL4196112, “Design of Selective sPLA2-X Inhibitor (-)-2-{2-[Carbamoyl-6-(trifluoromethoxy)-1H-indol-1-yl]pyridine-2-yl}propanoic Acid” (ACS Med Chem Lett, 2018):
# How the values were obtained:
# [1] = biological target: T1, Group 10 secretory phospholipase A2 (Homo sapiens, UniProt O15496); assay: Inhibition of sPLA2-10 (unknown origin) using 1-palmitoyl-2-oleoyl-sn-glycero-3-phosphocholine as substrate pretreated for 20 mins followed by substrate addition and measured after 60 mins by NEFA based assay
# T1 sequence (O15496 whole entry): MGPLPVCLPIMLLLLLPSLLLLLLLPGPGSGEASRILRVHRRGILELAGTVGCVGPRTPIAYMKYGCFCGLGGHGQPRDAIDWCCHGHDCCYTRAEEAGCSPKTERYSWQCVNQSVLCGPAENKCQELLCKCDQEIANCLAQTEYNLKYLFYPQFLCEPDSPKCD
# [2] = biological target: T2, Phospholipase A2, membrane associated (Homo sapiens, UniProt P14555); assay: Inhibition of sPLA2-2A (unknown origin) using 1-palmitoyl-2-oleoyl-sn-glycero-3-phosphocholine as substrate pretreated for 20 mins followed by substrate addition and measured after 60 mins by NEFA based assay
# T2 sequence (P14555 whole entry): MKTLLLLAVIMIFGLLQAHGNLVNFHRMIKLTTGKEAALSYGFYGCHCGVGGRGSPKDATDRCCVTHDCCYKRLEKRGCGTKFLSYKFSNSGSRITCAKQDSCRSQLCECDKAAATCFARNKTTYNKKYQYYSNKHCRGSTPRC
# [3] = biological target: T3, Phospholipase A2 group V (Homo sapiens, UniProt P39877); assay: Inhibition of sPLA2-5 (unknown origin) using 1-palmitoyl-2-oleoyl-sn-glycero-3-phosphocholine as substrate pretreated for 20 mins followed by substrate addition and measured after 60 mins by NEFA based assay
# T3 sequence (P39877 whole entry): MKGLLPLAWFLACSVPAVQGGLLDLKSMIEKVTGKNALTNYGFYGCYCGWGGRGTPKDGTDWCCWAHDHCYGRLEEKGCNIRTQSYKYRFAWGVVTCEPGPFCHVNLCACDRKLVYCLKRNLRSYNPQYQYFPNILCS
# [4] = biological target: T1, Group 10 secretory phospholipase A2; assay: Inhibition of recombinant human sPLA2-10 using human HDL as substrate pretreated for 20 mins followed by substrate addition and measured after 60 mins by NEFA based assay
# [5] = Lipophilicity, log D of compound at pH 7.4; settings: buffer
# [6] = system: Mus musculus; assay: Unbound clearance in C57Bl/6J mouse administered iv or po; type: ADME, organism-based; settings: in vivo
# [7] = biological target: Group 10 secretory phospholipase A2 (Mus musculus, UniProt Q9QXX3); assay: Inhibition of mouse sPLA2-10
# [8] = Solubility of the compound in DMSO/HBSS solution at pH 7.4 after 24 hrs by LC-UV/MS analysis; type: physicochemical
# [9] = Apparent permeability in human Caco2 cells; type: ADME, cell-based; settings: Caco-2
# [10] = biological target: Voltage-gated inwardly rectifying potassium channel KCNH2 (Homo sapiens, UniProt Q12809); assay: Inhibition of human ERG expressed in CHO cells by ionworks patch clamp assay; type: cell-based
# [11] = Half life in human hepatocytes; type: ADME, cell-based, Hepatocyte
# [12] = biological target: Sodium channel protein type 5 subunit alpha (Homo sapiens, UniProt Q14524); assay: Inhibition of human Nav1.5 expressed in CHO cells by ionworks patch clamp assay; type: cell-based
# [13] = Inhibition of human Iks expressed in CHO cells by ionworks patch clamp assay; type: cell-based
# [14] = biological target: A-type voltage-gated potassium channel KCND3 (Homo sapiens, UniProt Q9UK17); assay: Inhibition of human Kv4.3 expressed in CHO cells by ionworks patch clamp assay; type: cell-based
# [15] = biological target: Voltage-dependent T-type calcium channel subunit alpha-1H (Homo sapiens, UniProt O95180); assay: Inhibition of human Cav3.2 expressed in CHO cells by ionworks patch clamp assay; type: cell-based
# [16] = biological target: Voltage-dependent L-type calcium channel subunit alpha-1C (Homo sapiens, UniProt Q13936); assay: Inhibition of human Cav1.2 expressed in CHO cells by ionworks patch clamp assay; type: cell-based
# [17] = Drug metabolism in human liver microsomes in presence of glutathione after 30 mins; type: ADME, microsome; settings: 0.5 h
# [18] = biological target: Cytochrome P450 3A4 (Homo sapiens, UniProt P08684); assay: Inhibition of recombinant human CYP3A4; type: ADME
# [19] = biological target: Cytochrome P450 2C9 (Homo sapiens, UniProt P11712); assay: Inhibition of recombinant human CYP2C9; type: ADME
# [20] = biological target: Cytochrome P450 2C19 (Homo sapiens, UniProt P33261); assay: Inhibition of recombinant human CYP2C19; type: ADME
# [21] = biological target: Cytochrome P450 2D6 (Homo sapiens, UniProt P10635); assay: Inhibition of recombinant human CYP2D6; type: ADME
# [22] = biological target: Cytochrome P450 1A2 (Homo sapiens, UniProt P05177); assay: Inhibition of recombinant human CYP1A2; type: ADME
# [23] = biological target: Cytochrome P450 2C8 (Homo sapiens, UniProt P10632); assay: Inhibition of recombinant human CYP2C8; type: ADME
# [24] = Fraction unbound in C57Bl/6J mouse plasma; type: ADME, cell-free
# [25] = system: Mus musculus; assay: Unbound clearance in C57Bl/6J mouse at 10 umol/kg, iv or 50 umol/kg, po; type: ADME, organism-based; settings: in vivo
# [26] = Oral bioavailability in C57Bl/6J mouse at 50 umol/kg; type: ADME, organism-based; settings: in vivo
# [27] = Volume of distribution at steady state in C57Bl/6J mouse at 10 umol/kg, iv or 50 umol/kg, po; type: ADME, organism-based; settings: in vivo, read-out: Vdss
# [28] = system: Mus musculus; assay: Toxicity in ApoE knockout pro-atherogenic western diet-induced Tac mouse carotid artery ligation model of atherosclerosis assessed as reduction in body weight at 75 to 150 umol/kg/day mixed with food measured for 3 weeks; type: organism-based; settings: in vivo, po, 504 h
# [29] = system: Mus musculus; assay: Toxicity in ApoE knockout pro-atherogenic western diet-induced Tac mouse carotid artery ligation model of atherosclerosis assessed as effect on liver enzyme levels at 75 to 150 umol/kg/day mixed with food measured for 3 weeks; type: organism-based; settings: in vivo, po, 504 h
# [30] = system: Mus musculus; assay: Toxicity in ApoE knockout pro-atherogenic western diet-induced Tac mouse carotid artery ligation model of atherosclerosis assessed as histopathological changes in liver at 75 to 150 umol/kg/day mixed with food measured for 3 weeks by hematoxylin-eosin staining based assay; type: organism-based; settings: in vivo, po, 504 h
# [31] = system: Mus musculus; assay: Toxicity in ApoE knockout pro-atherogenic western diet-induced Tac mouse carotid artery ligation model of atherosclerosis assessed as histopathological changes in kidney at 75 to 150 umol/kg/day mixed with food measured for 3 weeks by hematoxylin-eosin staining based assay; type: organism-based; settings: in vivo, po, 504 h
# [32] = system: Mus musculus; assay: Toxicity in ApoE knockout pro-atherogenic western diet-induced Tac mouse carotid artery ligation model of atherosclerosis assessed as histopathological changes in heart at 75 to 150 umol/kg/day mixed with food measured for 3 weeks by hematoxylin-eosin staining based assay; type: organism-based; settings: in vivo, po, 504 h
# [33] = system: Mus musculus; assay: Toxicity in ApoE knockout pro-atherogenic western diet-induced Tac mouse carotid artery ligation model of atherosclerosis assessed as histopathological changes in intestine at 75 to 150 umol/kg/day mixed with food measured for 3 weeks by hematoxylin-eosin staining based assay; type: organism-based; settings: in vivo, po, 504 h
# [34] = system: Mus musculus; assay: Toxicity in ApoE knockout pro-atherogenic western diet-induced Tac mouse carotid artery ligation model of atherosclerosis assessed as histopathological changes in lung at 75 to 150 umol/kg/day mixed with food measured for 3 weeks by hematoxylin-eosin staining based assay; type: organism-based; settings: in vivo, po, 504 h
# [35] = system: Mus musculus; assay: Toxicity in ApoE knockout pro-atherogenic western diet-induced Tac mouse carotid artery ligation model of atherosclerosis assessed as histopathological changes in stomach at 75 to 150 umol/kg/day mixed with food measured for 3 weeks by hematoxylin-eosin staining based assay; type: organism-based; settings: in vivo, po, 504 h
# [36] = system: Mus musculus; assay: Toxicity in ApoE knockout pro-atherogenic western diet-induced Tac mouse carotid artery ligation model of atherosclerosis assessed as histopathological changes in duodenum at 75 to 150 umol/kg/day mixed with food measured for 3 weeks by hematoxylin-eosin staining based assay; type: organism-based; settings: in vivo, po, 504 h
# [37] = system: Mus musculus; assay: Toxicity in ApoE knockout pro-atherogenic western diet-induced Tac mouse carotid artery ligation model of atherosclerosis assessed as histopathological changes in ceacum at 75 to 150 umol/kg/day mixed with food measured for 3 weeks by hematoxylin-eosin staining based assay; type: organism-based; settings: in vivo, po, 504 h
# [38] = Ratio of free drug level in ApoE knockout pro-atherogenic western diet-induced Tac mouse at 75 umol/kg measured after 3 weeks to IC50 for recombinant human sPLA2-10 using human HDL as substrate; type: ADME; settings: in vivo, 504 h
# [39] = Ratio of free drug level in ApoE knockout pro-atherogenic western diet-induced Tac mouse at 75 umol/kg measured after 1 week to IC50 for recombinant human sPLA2-10 using human HDL as substrate; type: ADME; settings: in vivo, 168 h
# [40] = Ratio of free drug level in ApoE knockout pro-atherogenic western diet-induced Tac mouse at 150 umol/kg measured after 1 week to IC90 for recombinant human sPLA2-10 using human HDL as substrate; type: ADME; settings: in vivo, 168 h
# [41] = Ratio of free drug level in ApoE knockout pro-atherogenic western diet-induced Tac mouse at 150 umol/kg measured after 3 weeks to IC90 for recombinant human sPLA2-10 using human HDL as substrate; type: ADME; settings: in vivo, 504 h
# Chain of A-type voltage-gated potassium channel KCND3 (Q9UK17 whole entry): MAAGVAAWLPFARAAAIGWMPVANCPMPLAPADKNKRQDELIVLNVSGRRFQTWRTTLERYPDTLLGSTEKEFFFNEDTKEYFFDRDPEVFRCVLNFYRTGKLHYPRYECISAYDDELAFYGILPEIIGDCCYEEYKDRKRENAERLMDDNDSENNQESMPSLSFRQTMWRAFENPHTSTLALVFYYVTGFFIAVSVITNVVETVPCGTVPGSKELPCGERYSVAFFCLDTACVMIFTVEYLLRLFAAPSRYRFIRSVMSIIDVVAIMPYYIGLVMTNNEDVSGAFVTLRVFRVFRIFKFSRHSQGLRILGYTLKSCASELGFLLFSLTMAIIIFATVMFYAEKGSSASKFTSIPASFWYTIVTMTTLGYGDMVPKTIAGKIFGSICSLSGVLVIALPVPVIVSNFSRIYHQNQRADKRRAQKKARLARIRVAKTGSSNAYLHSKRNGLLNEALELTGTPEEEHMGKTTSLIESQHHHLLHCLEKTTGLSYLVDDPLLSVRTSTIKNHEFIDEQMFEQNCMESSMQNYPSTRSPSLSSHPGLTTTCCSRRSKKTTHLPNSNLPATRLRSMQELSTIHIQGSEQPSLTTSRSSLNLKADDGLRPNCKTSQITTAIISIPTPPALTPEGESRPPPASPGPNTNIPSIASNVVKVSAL
# Chain of Group 10 secretory phospholipase A2 (Mus musculus, UniProt Q9QXX3) (Q9QXX3 whole entry): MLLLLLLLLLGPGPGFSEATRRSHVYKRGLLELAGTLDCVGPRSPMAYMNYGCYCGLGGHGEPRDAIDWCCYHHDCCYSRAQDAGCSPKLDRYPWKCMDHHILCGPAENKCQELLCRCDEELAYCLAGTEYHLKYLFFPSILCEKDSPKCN
# Chain of Cytochrome P450 1A2 (P05177 whole entry): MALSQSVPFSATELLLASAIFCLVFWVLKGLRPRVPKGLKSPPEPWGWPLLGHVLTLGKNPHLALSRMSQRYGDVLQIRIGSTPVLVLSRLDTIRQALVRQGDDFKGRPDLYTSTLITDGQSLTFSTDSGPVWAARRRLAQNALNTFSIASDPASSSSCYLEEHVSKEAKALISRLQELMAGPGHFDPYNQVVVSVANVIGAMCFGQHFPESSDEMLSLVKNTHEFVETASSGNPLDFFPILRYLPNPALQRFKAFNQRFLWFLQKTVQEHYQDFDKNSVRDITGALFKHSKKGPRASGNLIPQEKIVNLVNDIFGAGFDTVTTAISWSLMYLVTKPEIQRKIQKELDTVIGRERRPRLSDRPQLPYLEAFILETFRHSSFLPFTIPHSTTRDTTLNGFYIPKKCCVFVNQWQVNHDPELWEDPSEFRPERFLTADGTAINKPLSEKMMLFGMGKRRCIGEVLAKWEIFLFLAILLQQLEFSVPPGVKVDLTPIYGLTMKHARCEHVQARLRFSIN
# Chain of Cytochrome P450 3A4 (P08684 whole entry): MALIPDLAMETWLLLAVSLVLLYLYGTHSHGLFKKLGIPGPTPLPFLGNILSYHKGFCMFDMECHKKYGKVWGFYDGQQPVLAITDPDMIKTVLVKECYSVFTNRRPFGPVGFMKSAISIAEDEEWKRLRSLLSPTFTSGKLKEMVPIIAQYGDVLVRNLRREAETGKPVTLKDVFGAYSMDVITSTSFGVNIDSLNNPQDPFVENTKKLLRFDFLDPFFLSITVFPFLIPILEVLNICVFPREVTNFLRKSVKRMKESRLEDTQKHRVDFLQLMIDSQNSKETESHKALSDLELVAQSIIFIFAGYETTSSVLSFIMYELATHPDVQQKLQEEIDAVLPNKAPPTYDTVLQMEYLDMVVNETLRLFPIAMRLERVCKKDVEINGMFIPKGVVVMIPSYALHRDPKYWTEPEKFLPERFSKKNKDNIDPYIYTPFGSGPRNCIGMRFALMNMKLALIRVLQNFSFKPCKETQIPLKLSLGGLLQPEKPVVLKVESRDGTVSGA
# Chain of Sodium channel protein type 5 subunit alpha (Q14524 whole entry): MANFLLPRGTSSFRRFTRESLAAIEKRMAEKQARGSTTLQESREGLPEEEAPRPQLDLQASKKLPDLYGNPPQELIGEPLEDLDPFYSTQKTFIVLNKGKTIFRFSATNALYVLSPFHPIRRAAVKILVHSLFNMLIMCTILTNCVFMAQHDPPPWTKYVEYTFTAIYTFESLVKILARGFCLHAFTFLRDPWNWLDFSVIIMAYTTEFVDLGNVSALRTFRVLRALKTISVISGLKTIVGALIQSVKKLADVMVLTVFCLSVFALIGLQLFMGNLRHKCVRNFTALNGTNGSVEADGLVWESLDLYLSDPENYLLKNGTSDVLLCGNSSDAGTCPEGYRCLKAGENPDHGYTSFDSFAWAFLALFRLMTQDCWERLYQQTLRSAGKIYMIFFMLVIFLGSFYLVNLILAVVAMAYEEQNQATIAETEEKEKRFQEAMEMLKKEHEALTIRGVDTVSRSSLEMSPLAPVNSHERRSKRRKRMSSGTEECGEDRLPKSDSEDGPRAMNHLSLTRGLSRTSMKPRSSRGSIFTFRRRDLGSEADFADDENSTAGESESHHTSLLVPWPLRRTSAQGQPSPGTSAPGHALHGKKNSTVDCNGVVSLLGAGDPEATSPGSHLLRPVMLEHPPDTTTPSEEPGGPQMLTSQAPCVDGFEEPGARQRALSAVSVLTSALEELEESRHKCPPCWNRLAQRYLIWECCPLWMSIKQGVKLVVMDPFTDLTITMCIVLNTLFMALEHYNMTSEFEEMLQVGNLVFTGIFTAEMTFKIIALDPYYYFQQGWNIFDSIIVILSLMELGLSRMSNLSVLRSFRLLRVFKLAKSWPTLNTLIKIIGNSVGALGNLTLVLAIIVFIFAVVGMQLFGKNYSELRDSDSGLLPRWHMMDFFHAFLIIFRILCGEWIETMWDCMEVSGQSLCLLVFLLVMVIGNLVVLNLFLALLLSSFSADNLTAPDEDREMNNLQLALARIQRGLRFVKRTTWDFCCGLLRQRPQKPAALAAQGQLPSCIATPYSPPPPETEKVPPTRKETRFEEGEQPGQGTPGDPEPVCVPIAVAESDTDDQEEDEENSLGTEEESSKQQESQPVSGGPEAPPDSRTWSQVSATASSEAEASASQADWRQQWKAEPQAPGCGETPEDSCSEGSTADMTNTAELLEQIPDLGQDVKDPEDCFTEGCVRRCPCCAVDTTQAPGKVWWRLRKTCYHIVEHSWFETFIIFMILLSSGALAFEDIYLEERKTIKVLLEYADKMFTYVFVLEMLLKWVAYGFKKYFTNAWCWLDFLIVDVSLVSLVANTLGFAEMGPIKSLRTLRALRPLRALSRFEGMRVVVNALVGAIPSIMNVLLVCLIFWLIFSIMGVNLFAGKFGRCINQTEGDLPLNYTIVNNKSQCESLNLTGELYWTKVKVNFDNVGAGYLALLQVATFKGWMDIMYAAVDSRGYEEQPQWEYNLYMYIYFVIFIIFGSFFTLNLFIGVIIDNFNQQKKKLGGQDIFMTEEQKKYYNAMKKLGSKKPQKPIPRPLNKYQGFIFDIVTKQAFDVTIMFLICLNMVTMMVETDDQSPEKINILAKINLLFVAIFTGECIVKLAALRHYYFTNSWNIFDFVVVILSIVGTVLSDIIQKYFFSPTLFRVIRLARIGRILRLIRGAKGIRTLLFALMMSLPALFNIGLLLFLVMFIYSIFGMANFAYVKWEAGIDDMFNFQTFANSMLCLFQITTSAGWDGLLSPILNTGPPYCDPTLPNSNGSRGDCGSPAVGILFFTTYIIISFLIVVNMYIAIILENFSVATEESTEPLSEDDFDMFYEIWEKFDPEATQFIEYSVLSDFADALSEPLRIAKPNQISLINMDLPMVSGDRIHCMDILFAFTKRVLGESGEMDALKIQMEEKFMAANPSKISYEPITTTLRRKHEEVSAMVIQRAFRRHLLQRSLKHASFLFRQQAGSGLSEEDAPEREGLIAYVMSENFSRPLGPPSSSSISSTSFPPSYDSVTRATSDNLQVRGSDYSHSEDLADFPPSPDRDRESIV
# Chain of Voltage-gated inwardly rectifying potassium channel KCNH2 (Q12809 whole entry): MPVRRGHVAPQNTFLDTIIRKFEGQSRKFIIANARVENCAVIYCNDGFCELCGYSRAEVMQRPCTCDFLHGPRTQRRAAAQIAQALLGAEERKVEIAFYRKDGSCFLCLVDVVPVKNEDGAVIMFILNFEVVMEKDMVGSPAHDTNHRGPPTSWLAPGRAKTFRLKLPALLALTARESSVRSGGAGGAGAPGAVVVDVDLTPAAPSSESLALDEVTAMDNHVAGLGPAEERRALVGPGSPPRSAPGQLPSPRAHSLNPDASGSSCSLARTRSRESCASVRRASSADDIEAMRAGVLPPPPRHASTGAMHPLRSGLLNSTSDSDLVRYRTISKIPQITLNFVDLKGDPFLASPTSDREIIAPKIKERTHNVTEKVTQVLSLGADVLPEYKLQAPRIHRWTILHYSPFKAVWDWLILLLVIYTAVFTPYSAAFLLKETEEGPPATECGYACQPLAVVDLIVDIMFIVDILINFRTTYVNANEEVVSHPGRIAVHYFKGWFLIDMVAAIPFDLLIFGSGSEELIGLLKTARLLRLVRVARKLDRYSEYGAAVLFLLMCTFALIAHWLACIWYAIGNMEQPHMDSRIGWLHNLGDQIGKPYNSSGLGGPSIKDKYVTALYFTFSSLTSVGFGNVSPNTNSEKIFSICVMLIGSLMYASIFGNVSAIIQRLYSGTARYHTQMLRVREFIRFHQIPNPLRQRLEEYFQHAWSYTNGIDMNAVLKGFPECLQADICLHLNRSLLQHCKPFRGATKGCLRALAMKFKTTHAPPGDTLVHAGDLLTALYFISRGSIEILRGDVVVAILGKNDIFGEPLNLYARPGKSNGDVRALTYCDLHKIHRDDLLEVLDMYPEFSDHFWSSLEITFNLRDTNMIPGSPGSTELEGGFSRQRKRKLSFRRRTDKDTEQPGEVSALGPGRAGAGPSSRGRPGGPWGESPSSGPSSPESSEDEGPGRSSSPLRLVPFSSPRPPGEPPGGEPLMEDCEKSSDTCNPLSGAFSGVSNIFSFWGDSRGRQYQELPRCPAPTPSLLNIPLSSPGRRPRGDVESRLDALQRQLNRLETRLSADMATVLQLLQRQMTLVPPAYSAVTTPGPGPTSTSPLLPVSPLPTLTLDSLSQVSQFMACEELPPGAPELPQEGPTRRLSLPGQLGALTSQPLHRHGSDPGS
smiles,measurement,setting,value
CC(CC(=O)O)c1cccc(-n2c(C(N)=O)cc3ccc(OC(F)(F)F)cc32)n1 (stereo in doubt; (-)-17),IC50,[1],0.014 µM
same,IC50,[2],0.63 µM
same,IC50,[3],5.5 µM
same,IC50,[4],0.042 µM
same,logD,[5],0.9
same,CL free,[6],306 mL/min/kg
same,IC50,[7],0.075 µM
same,solubility at 24 h,[8],100 µM
same,Papp,[9],5.8 ×10⁻⁶ cm/s
same,IC50,[10],> 33 µM
same,half-life,[11],> 2.88 h
same,IC50,[12],> 33 µM
same,IC50,[13],> 33 µM
same,IC50,[14],> 33 µM
same,IC50,[15],> 33 µM
same,IC50,[16],> 33 µM
same,Drug metabolism,[17],Metabolite_Notdetected
same,IC50,[18],> 20 µM
same,IC50,[19],> 20 µM
same,IC50,[20],> 20 µM
same,IC50,[21],> 20 µM
same,IC50,[22],> 20 µM
same,IC50,[23],> 20 µM
same,fraction unbound,[24],0.05
same,CL free,[25],306 mL/min/kg
same,bioavailability,[26],95%
same,Vd,[27],0.52 L/kg
same,Activity,[28],Non-Toxic
same,Activity,[29],Non-Toxic
same,Activity,[30],Non-Toxic
same,Activity,[31],Non-Toxic
same,Activity,[32],Non-Toxic
same,Activity,[33],Non-Toxic
same,Activity,[34],Non-Toxic
same,Activity,[35],Non-Toxic
same,Activity,[36],Non-Toxic
same,Activity,[37],Non-Toxic
same,Ratio,[38],> 7
same,Ratio,[39],> 7
same,Ratio,[40],> 7
same,Ratio,[41],> 7
